Test results reported in US20240400572A1, “COMPOUNDS AND METHODS FOR TREATING CANCERS THAT ARE MGMT DEFICIENT REGARDLESS OF MMR STATUS” (Yale University, priority 2021, published 2024).
“Also recorded” adds a separate entry of the source.

Assays:
[1] = test system: LN229 MGMT+/−, MMR+/− cells; assay: Micronuclei analysis; format: cell-based, human; conditions: 20 μM, 48 h
From the text: Micronuclei Analysis. An automated image analysis pipeline was developed by YCMD using InCell Analyzer software to quantify micronuclei formation. Nuclei and micronuclei were segmented based on Hoechst nucleic acid dye staining channel. A perinuclear margin was applied around the nuclei to approximate the extent of the cytoplasm and identify micronuclei associated with the parent nucleus. Cells with nuclei associated with at least 1 micronucleus were considered positive.

[2] = test system: LN229 MGMT+/−, MMR+/− cells; assay: Cell cycle analysis; format: cell-based, human; conditions: 20 μM, 24 to 48 h; cell status given in the value
Protocol: Cell Cycle Analysis. Cell cycle analysis was performed using integrated Hoechst nucleic acid dye fluorescence. Briefly, integrated Hoechst fluorescence intensity was log 2 transformed and histograms from DMSO-treated cells were used to identify the centers of the 2N and 4N DNA peaks. These values were used to normalize the 2N DNA peak to 1 and the 4N DNA peak to 2. Cells were then classified by normalized log 2 DNA content as GI (0.75-1.25), S (1.25-1.75), or G2 (1.75-2.5) phase cells. The percentage of cells within each phase of the cell cycle was determined for each treatment condition. The three sets of Hoechst-stained cells corresponding to the three separate DNA foci stains were treated as three independent analyses.

[3] = test system: Isogenic glioma (Ln 229) cells, MGMT−/MMR−; assay: Clonogenic Survival Assay (FIG. 9); format: cell-based, human; conditions: identical concentrations of test compound
Protocol: Clonogenic Survival Assay (FIG. 9): Isogenic glioma (Ln 229) cells were pretreated with the test drug in culture for 48-72 hours at the specified dilutions. Cells were then transferred in media without drug to 6-well plates in triplicate at 3-fold dilutions ranging from 9,000 to 37 cells per well. After 14 days, plates were washed with PBS and stained with crystal violet. Colonies were counted by hand. Counts were normalized to plating efficiency of the corresponding treatment condition.

[4] = test system: CHK1 and CHK2 phosphorylation in LN229 MGMT+/−, MMR+/− cells; assay: Western blotting of checkpoint kinase phosphorylation; format: cell-based, human; conditions: 20 μM, 24 or 48 h
Protocol: Western Blotting. For phospho-protein analysis experiments, cells were lysed in 1× RIPA buffer (Cell Signaling Technology, #9806) supplemented with 1× Protease Inhibitor Cocktail (Roche) and 1× PhosSTOP Phosphatase Inhibitor Cocktail (Sigma). For all other western blot analyses, cells were lysed in lysis buffer (50 mM HEPES, 250 mM NaCl, 5 mM EDTA, 1% NP-40) supplemented with 1× Protease Inhibitor Cocktail (Roche). The de-ubiquitination inhibitor N-ethylmaleimide (NEM, 4 mM) was added in FANCD2 ubiquitination analysis experiments. Proteins were separated using NuPAGE 4-12% Bis-Tris or 3-8% Tris-Acetate Gels (Invitrogen) and transferred to Immobilon-P PVDF membrane (Millipore) for western blotting. Membranes were blocked with 5% milk in TBS-T for 1 h prior to primary antibody addition overnight at 4° C. […] Where shown, bands were quantified using ImageJ software.

[5] = test system: LN229 WT and LN229-MSH2^− flank tumors; assay: Xenograft Experiments (FIG. 11); format: in vivo, mouse; conditions: 5 mg/kg gavage, Mondays, Wednesdays and Fridays for 3 weeks
Protocol: Xenograft Experiments (FIG. 11): All animal studies were approved by the Institutional Animal Use and Care Committee and performed in accordance with the Guide for the Care and Use of Laboratory Animals. LN229 WT and LN229-MSH2^− cell lines were maintained in DMEM media supplemented with 10% fetal bovine serum. Three-four-week-old female athymic nude Foxnnu mice were obtained from Envigo and each mouse was inoculated subcutaneously with tumor cells (4.5-5×10^6) in 0.1 ml of PBS with Matrigel (1:1). Wild type cells were injected on the right flank and mutant cells were injected on the left flank. The tumors were then grown to a mean size of approximately 50-100 mm3 and the mice were then split into groups and treated as detailed in FIG. 7. Gavage doses of 5 mg/kg of KL-50 or TMZ were prepared by diluting stocks in DMSO with 10% cyclodextrin. Compound was administered each day of dosing at a volume of 100 μL/mouse. Mice were treated for 3 weeks with dosing on Mondays, Wednesdays and Fridays. Tumors were measured 3 times a week during treatment and during the washout period of 2 weeks. Xenograft tumors were measured by calipers and volume was calculated using the equation for ellipsoid volume: Volume=0.523×(length)×(width)^2. Statistical Analysis: Analysis of variance (ANOVA) was used to test for significant differences between groups. Post-hoc Bonferroni multiple comparison test analysis was used to determine significant differences among means. All statistical analysis was accomplished using Graph Pad Prism 8.2.0 software.

NC(=O)c1ncn2c(=O)n(CCF)nnc12 [KL-50, 3-(2-fluoroethyl)-4-oxo-3H,4H-imidazo[4,3-d][1,2,3,5]tetrazine-8-carboxamide]
micronuclei formation (in words) [1]: significant increase in micronuclei was observed at 48 h
cell cycle arrest (in words) [2]: increasing G2 arrest on progression from 24 to 48 h in MGMT−/MMR+ cells; also recorded: attenuated G2 arrest in MGMT−/MMR− cells; also recorded: moderate G2 arrest in MGMT+/MMR+ cells
cells survived (fraction) [3]: less than 10^−4
CHK1 and CHK2 phosphorylation (in words) [4]: induced CHK1 and CHK2 phosphorylation in MGMT− cells regardless of MMR status
activity in MGMT−/MMR (MSH2)+ tumors (in words) [5]: comparable activity to TMZ
activity in MGMT−/MMR (MSH2)− tumors (in words) [5]: surprisingly effective

Cn1nnc2c(C(N)=O)ncn2c1=O [TMZ, temozolomide, reference compound]
micronuclei formation (in words) [1]: smaller increases in G1-phase foci and micronuclei formation at 48 h in MGMT−/MMR+ cells; also recorded: did not observe foci induction or micronuclei formation in MGMT−/MMR− cells
cell cycle arrest (in words) [2]: This effect in MGMT−/MMR− cells was absent; also recorded: moderate G2 arrest in MGMT+/MMR+ cells
cells survived [3]: about 100%
CHK1 and CHK2 phosphorylation (in words) [4]: only induced phospho-CHK1 and —CHK2 in MGMT−/MMR+ cells
activity in MGMT−/MMR (MSH2)− tumors (in words) [5]: ineffective
